pKi: −log10 of the molar value.

human IRAK4, sequence (Q9NWZ3 whole entry, the tested form may be a part): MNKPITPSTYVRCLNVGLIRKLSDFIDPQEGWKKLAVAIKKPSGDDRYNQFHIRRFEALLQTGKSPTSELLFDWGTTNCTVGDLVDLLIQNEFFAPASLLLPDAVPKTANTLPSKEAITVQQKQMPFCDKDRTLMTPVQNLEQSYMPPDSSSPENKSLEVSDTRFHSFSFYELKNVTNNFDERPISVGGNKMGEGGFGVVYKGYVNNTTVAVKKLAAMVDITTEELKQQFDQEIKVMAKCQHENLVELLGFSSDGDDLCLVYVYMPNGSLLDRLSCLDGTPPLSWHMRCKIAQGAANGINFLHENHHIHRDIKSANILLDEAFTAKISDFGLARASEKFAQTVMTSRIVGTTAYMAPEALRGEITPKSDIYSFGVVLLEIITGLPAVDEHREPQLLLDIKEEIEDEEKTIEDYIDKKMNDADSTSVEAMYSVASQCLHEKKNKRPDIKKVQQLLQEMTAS

This experiment concerns the target human IRAK4 (Homo sapiens (Human), UniProt Q9NWZ3). Briefly: IRAK4 kinase inhibition, Transcreener fluorescence polarization ADP assay. The note with it: recombinant full-length His6-IRAK4; 125 uM ATP; 90 min; Ki computed using ATP Km 642 uM. It counts as biochemical. Here is the method:
Compounds were assayed for inhibition of human IRAK4 and IRAK1 catalytic activity using recombinant enzyme produced from insect cells. Full-length IRAK4 protein, carrying an N-terminal His6-Tag, was obtained from Life Technologies (Carlsbad, Calif., USA). The IRAK1 construct was produced internally and was comprised of IRAK1 residues Arg194 to Ser712, preceded by an NH2-terminal His6 tag and the coding sequence for glutathione-S-transferase.
In the case of `C[C@]1(O)COc2cc(N3CCOCC3)c(NC(=O)c3cnn4cccnc34)cc2C1` (single isomer, unassigned) [Example 27], the pKi is 6.59. As for `C[C@@]1(O)COc2cc(N3CCOCC3)c(NC(=O)c3cnn4cccnc34)cc2C1` (single isomer, unassigned) [Example 28], the figure is 7.57. As for `C[C@]1(CO)Cc2cc(NC(=O)c3cnn4cccnc34)c(N3CCC(F)(CO)CC3)cc2O1` (single isomer, unassigned) [Example 44], the figure is 8.77; as for `C[C@@]1(CO)Cc2cc(NC(=O)c3cnn4cccnc34)c(N3CCC(F)(CO)CC3)cc2O1` (single isomer, unassigned) [Example 45], 8.72. As for `C[C@@]1(CO)Cc2cc(NC(=O)c3cnn4cccnc34)c(N3C[C@@H]4C[C@H]3CO4)cc2O1` (single isomer, unassigned) [Example 46], the figure is 6.27. Turning to `CC[C@]1(C)Cc2cc(NC(=O)c3cnn4cccnc34)c(N3CCOCC3)cc2O1` (single isomer, unassigned) [Example 97], the pKi is 8.14. As for `C[C@]1(CO)Cc2cc(NC(=O)c3cnn4cc(Cl)cnc34)c(N3CCOCC3)cc2O1` (single isomer, unassigned) [Example 166], the figure is 7.74. As for `C[C@@]1(CO)Cc2cc(NC(=O)c3cnn4cc(Cl)cnc34)c(N3CCN(CC(F)F)CC3)cc2O1` (single isomer, unassigned) [Example 169], the figure is 8.60. For the compound `CC1(C)Cc2cc(NC(=O)c3cnn4cccnc34)c(N3CC[C@@]4(CCOC4)C3)cc2O1` (single isomer, unassigned) [Example 222], the pKi was 7.03.

On to `CC1(C)Cc2cc(NC(=O)c3cnn4cccnc34)c(N3CC[C@]4(CCOC4)C3)cc2O1` (single isomer, unassigned) [Example 223], for which the pKi is 7.14. As for `CC(C)(O)[C@H](F)CN1Cc2cc(NC(=O)c3cnn4cccnc34)c(N3CCC([C@H](O)C(F)(F)F)CC3)cc2C1=O` (single isomer, unassigned) [Example 259], the figure is 8.70; as for `O=C(Nc1cc2c(cc1N1CCOCC1)C(=O)N(C1CCOC1)C2)c1cnn2cccnc12` (single isomer, unassigned) [Example 275, N-(6-morpholino-1-oxo-2-(tetrahydrofuran-3-yl)isoindolin-5-yl)pyrazolo[1,5-a]pyrimidine-3-carboxamide], 7.47. As for `O=C(Nc1cc2c(cc1N1CCOCC1)C(=O)N(C1CCOC1)C2)c1cnn2cccnc12` (single isomer, unassigned) [Example 276, N-(6-morpholino-1-oxo-2-(tetrahydrofuran-3-yl)isoindolin-5-yl)pyrazolo[1,5-a]pyrimidine-3-carboxamide], the figure is 7.59; as for `O=C(Nc1cc2c(cc1N1CCOCC1)C(=O)N(CC1CCCCO1)C2)c1cnn2cccnc12` (single isomer, unassigned) [Example 277, N-(6-morpholino-1-oxo-2-((tetrahydro-2H-pyran-2-yl)methyl)isoindolin-5-yl)pyrazolo[1,5-a]pyrimidine-3-carboxamide], 7.80. As for `O=C(Nc1cc2c(cc1N1CCOCC1)C(=O)N(CC1CCCCO1)C2)c1cnn2cccnc12` (single isomer, unassigned) [Example 278, N-(6-morpholino-1-oxo-2-((tetrahydro-2H-pyran-2-yl)methyl)isoindolin-5-yl)pyrazolo[1,5-a]pyrimidine-3-carboxamide], the figure is 8.40; as for `CC(C)(O)[C@H](F)CN1Cc2cc(NC(=O)c3cnn4cccnc34)c(N3CCC([C@H](O)C(F)F)CC3)cc2C1=O` (single isomer, unassigned) [Example 282], 8.70; as for `CC(C)(O)[C@H](F)CN1Cc2cc(NC(=O)c3cnn4cccnc34)c(N3CCC([C@@H](O)C(F)F)CC3)cc2C1=O` (single isomer, unassigned) [Example 283], 8.70.

With `O=C(Nc1cc2c(cc1N1CCC(F)(CO)CC1)O[C@](CO)(C(F)(F)F)C2)c1cnn2cccnc12` (single isomer, unassigned) [Example 318], the pKi was 8.37. As for `C[C@@]1(O)CCCN(c2cc3c(cc2NC(=O)c2cnn4cccnc24)C[C@@](C)(CO)O3)CC1` (single isomer, unassigned) [Example 331], the figure is 7.92; as for `CC1(CO)Cc2cc(NC(=O)c3cnn4cccnc34)c(N3CCC(n4ccnc4)CC3)cc2O1` (single isomer, unassigned) [Example 344, N-(6-(4-(1H-imidazol-1-yl)piperidin-1-yl)-2-(hydroxymethyl)-2-methyl-2,3-dihydrobenzofuran-5-yl)pyrazolo[1,5-a]pyrimidine-3-carboxamide], 8.10.

Regarding `CC1(CO)Cc2cc(NC(=O)c3cnn4cccnc34)c(N3CCC(n4ccnc4)CC3)cc2O1` (single isomer, unassigned) [Example 345, N-(6-(4-(1H-imidazol-1-yl)piperidin-1-yl)-2-(hydroxymethyl)-2-methyl-2,3-dihydrobenzofuran-5-yl)pyrazolo[1,5-a]pyrimidine-3-carboxamide], the pKi is 8.40. For the compound `C[C@]1(CO)Cc2cc(NC(=O)c3cnn4cccnc34)c(N3CCC4(CC3)CNC(=O)C4)cc2O1` (single isomer, unassigned) [Example 417], the pKi is 8.44.

Turning to `C[C@]1(CO)Cc2cc(NC(=O)c3cnn4cccnc34)c(N3Cc4cccnc4C3)cc2O1` (single isomer, unassigned) [Example 419], the pKi is 8.05.

On to `C[C@]1(O)COc2cc(N3CCC([C@@](C)(O)C(F)(F)F)CC3)c(NC(=O)c3cnn4cccnc34)cc2C1` (single isomer, unassigned) [Example 422], for which the negative logarithm of the Ki (pKi) was 6.96. As for `Cn1cc(COc2cc3c(cc2NC(=O)c2cnn4cccnc24)C[C@@](C)(O)CO3)cn1` (single isomer, unassigned) [Example 430], the figure is 6.89; as for `C[C@]1(CO)CCc2cc(NC(=O)c3cnn4cccnc34)c(N3CCOCC3)cc2O1` (single isomer, unassigned) [Example 432], 8.00.

`C[C@@]1(CO)CCc2cc(NC(=O)c3cnn4cccnc34)c(N3CCOCC3)cc2O1` (single isomer, unassigned) [Example 433]: the pKi was 7.85. As for `C[C@@]1(CO)CCc2cc(NC(=O)c3cnn4cccnc34)c(N3CCOCC3)cc2O1` (single isomer, unassigned) [Example 436], the figure is 8.00; as for `C[C@]1(CO)CCc2cc(NC(=O)c3cnn4cccnc34)c(N3CCOCC3)cc2O1` (single isomer, unassigned) [Example 437], 7.85. As for `O=C(Nc1cc2c(cc1N1CCOCC1)C(=O)N(CC1CCOC1)C2)c1cnn2cccnc12` (single isomer, unassigned) [Example 555], the figure is 8.42; as for `CC(CC(C)(C)O)N1Cc2cc(NC(=O)c3cnn4cccnc34)c(N3CCOCC3)cc2C1=O` (stereo in doubt) [Example 544, N-[2-[(1S)-3-hydroxy-1,3-dimethyl-butyl]-6-morpholino-1-oxo-isoindolin-5-yl]pyrazolo[1,5-a]pyrimidine-3-carboxamide], 7.89; as for `CC(CC(C)(C)O)N1Cc2cc(NC(=O)c3cnn4cccnc34)c(N3CCOCC3)cc2C1=O` (stereo in doubt) [Example 545, N-[2-[(1R)-3-hydroxy-1,3-dimethyl-butyl]-6-morpholino-1-oxo-isoindolin-5-yl]pyrazolo[1,5-a]pyrimidine-3-carboxamide], 8.23. As for `O=C(Nc1cc2c(cc1N1CCOCC1)C(=O)N(C[C@@H]1CCC[C@H]1O)C2)c1cnn2cccnc12` (stereo in doubt) [Example 549, N-[2-[[(1S,2R)-2-hydroxycyclopentyl]methyl]-6-morpholino-1-oxo-isoindolin-5-yl]pyrazolo[1,5-a]pyrimidine-3-carboxamide], the figure is 8.09; as for `O=C(Nc1cc2c(cc1N1CCOCC1)C(=O)N(C[C@H]1CCC[C@@H]1O)C2)c1cnn2cccnc12` (stereo in doubt) [Example 550, N-[2-[[(1R,2S)-2-hydroxycyclopentyl]methyl]-6-morpholino-1-oxo-isoindolin-5-yl]pyrazolo[1,5-a]pyrimidine-3-carboxamide], 8.68; as for `O=C(Nc1cc2c(cc1N1CCC(CO)CC1)OCCN2)c1cnn2cccnc12` [Example 1, N-(7-(4-(Hydroxymethyl)piperidin-1-yl)-3,4-dihydro-2H-benzo[b][1,4]oxazin-6-yl)pyrazolo[1,5-a]pyrimidine-3-carboxamide], 8.33. In the case of `O=C1COc2cc(N3CCC(CO)CC3)c(NC(=O)c3cnn4cccnc34)cc2N1` [Example 2, N-(7-(4-(Hydroxymethyl)piperidin-1-yl)-3-oxo-3,4-dihydro-2H-benzo[b][1,4]oxazin-6-yl)pyrazolo[1,5-a]pyrimidine-3-carboxamide], the pKi was 7.59. With `CNC[C@H]1OC[C@H](c2cc3c(cc2NC(=O)c2cnn4cccnc24)CC(C)(C)O3)CO1` [Example 3, Trans-N-[2,2-dimethyl-6-[2-(methylaminomethyl)-1,3-dioxan-5-yl]-3H-benzofuran-5-yl]pyrazolo[1,5-a]pyrimidine-3-carboxamide], the pKi is 6.82. As for `CC1(C)Cc2cc(NC(=O)c3cnn4cccnc34)c(N3CCC(CO)CC3)cc2O1` [Example 4, N-(6-(4-(Hydroxymethyl)piperidin-1-yl)-2,2-dimethyl-2,3-dihydrobenzofuran-5-yl)pyrazolo[1,5-a]pyrimidine-3-carboxamide], the figure is 8.82; as for `CC1(C)CNc2cc(NC(=O)c3cnn4cccnc34)c(N3CCOCC3)cc2O1` [Example 5, N-(2,2-Dimethyl-7-morpholino-3,4-dihydro-2H-benzo[b][1,4]oxazin-6-yl)pyrazolo[1,5-a]pyrimidine-3-carboxamide], 7.27.
